We go through three compounds from patent US20030138419A1, “Recombinant antibody fusion proteins and methods for detection of apoptotic cells” (The University of Tennessee Research Corporation, priority 2001, published 2003).

Residues, ends and D or L forms follow the SMILES beside them. *: point of attachment. Cbz = O=C(OCc1ccccc1)*; CH2F = FC*

One assay deals with apoptotic Jurkat cells. The assay can be described thus: Confocal immunofluorescence microscopy of scFv and annexin V binding to apoptotic Jurkat cells. Format: cell-based.
The test system of the next assay is Jurkat cells. Briefly: Flow cytometry of annexin V and scFv binding to Jurkat cells treated with staurosporine, camptothecin or anti-Fas (12 hr). Format: cell-based.

Protocol for apoptotic Jurkat cells: Jurkat cells were harvested from culture and resuspended at a density of 10^6 /ml in RPMI 1640 containing 10% fetal bovine'serum (FBS). Apoptosis was induced for 12 hours with 1.0 μM staurosporine (Sigma Chemical Co. of St. Louis, Mo.), 2.0 μM camptothecin (Sigma), or 2.0 μg/ml anti-Fas antibody (clone 7C11; Beckman Coulter Inc. of Brea, Calif.). To inhibit apoptosis, parallel cultures were pre-incubated for 2 hours with 20 μM z-Val-Ala-Asp(Ome)-fluoromethylketone (z-VAD(Ome)-FMK) (Enzyme System Products of Livermore, Calif.). To inhibit membrane blebbing, parallel cultures were pre-incubated for 2 hours with 10 μM Y-27632 (Tocris of Ballwin, Mo.). At the end of the incubation period, 5×10^5 cells were aliquoted into tubes and stained for flow cytometry or confocal microscopy.
Cells were washed with HBSS and fixed with ice-cold 4% paraformaldehyde for 10 minutes. […] After incubation with the scFv, cells were washed once with HBSS/FBS and incubated with biotinylated annexin V (BD Biosciences) for 15 minutes on ice. Cells were then washed twice with HBSS/FBS and stained with streptavidin-conjugated Alexaflour 488 (Molecular Probes), Rhodamine Red-conjugated human serum IgG (Jackson Immunoresearch Laboratories) and the nucleic acid dye TO-PRO-3 (Molecular Probes). Following staining for 15 minutes on ice, cells were washed with HBSS/FBS and mounted onto poly-L-lysine-coated glass slides for viewing with a Zeiss LSM 510 laser scanning microscope (Carl Zeiss, Inc. of Thorwood, N.Y.).
Cells were washed with HBSS and fixed with ice-cold 4% paraformaldehyde for 10 minutes. […] After incubation with the scFv, cells were washed once with HBSS/FBS and incubated with biotinylated annexin V (BD Biosciences) for 15 minutes on ice. Cells were washed twice with HBSS/FBS and stained with streptavidin-conjugated Alexaflour 488 (Molecular Probes), Rhodamine Red-conjugated human serum IgG (Jackson Immunoresearch Laboratories) and the nucleic acid dye TO-PRO-3 (Molecular Probes). After a 15 minute incubation on ice, cells were washed with HBSS/FBS and mounted onto poly-L-lysine-coated glass slides for viewing with a Zeiss LSM 510 laser scanning microscope (Carl Zeiss Inc., Thorwood, N.Y.).

Turning to `C[C@@H](N)[C@H]1CC[C@H](C(=O)Nc2ccncc2)CC1` [Y-27632], the “effect on binding of annexin V” value in the assay with apoptotic Jurkat cells was “did not affect”. Moreover, in the assay with apoptotic Jurkat cells (anti-Fas treated cells, 10 μM), the “blebbing and nuclear fragmentation” value is on record as “inhibited”; the “effect on binding of the D56R/S76R scFv” value is “greatly reduced”.
On to `CC[C@@]1(O)C(=O)OCc2c1cc1n(c2=O)Cc2cc3ccccc3nc2-1` [camptothecin], for which the “cells observed to bind annexin V” value in the assay with Jurkat cells (12 hr incubation with the apoptotic stimulus) is “Approximately 29%”.
As for `COC(=O)C[C@H](NC(=O)[C@H](C)NC(=O)[C@@H](NC(=O)OCc1ccccc1)C(C)C)C(=O)CF` [z-VAD(OMe)-FMK, z-Val-Ala-Asp(Ome)-fluoromethylketone] (Cbz-Val-Ala-Asp(OMe)-CH2F), in the assay with Jurkat cells (20 μM, 2 hours pre-incubation), the “effect of pretreatment on binding of the D56R/S76R scFv” value is “largely eliminated” and the “effect of pretreatment on staining with annexin V” value is given as “decreased to near-background levels”. For the same compound, the “effect of pretreatment on staining of cells” value in the assay with apoptotic Jurkat cells (cells treated with camptothecin or anti-Fas antibody) is listed as “greatly reduced”. For the same compound, in the assay with apoptotic Jurkat cells (cells treated with staurosporine), the “effect of pretreatment on annexin V and scFv binding” value was “reduces both annexin V and scFv binding to background levels”.
